Test results as given in US20260378560A1, “APPROACHES TO DESIGNING AND PERFORMING COMPRESSED BIOLOGICAL EXPERIMENTS AND SYSTEMS FOR IMPLEMENTING THE SAME” (EXVIVO LABS INC., priority 2023, published 2026).

Columns and labels:
[1] = system: REH; assay: Cell viability (CellTiter Glo), compressed perturbation pools with informed pool design, SUM-based deconvolution, REH; set-up: scale not given here
Procedure: Total cell viability was measured for each sample using an ATP-based luminescence assay (i.e., CellTiter Glo). Each cancer drug was then screened at multiple concentrations ranging from one nM to ten μM in order to generate a dose-response curve and calculate a DRS for each cancer cell line.
Each cancer drug was cultured with target cells individually. At the end of the screen, samples were either analyzed individually or compressed into pools for analysis. The library was compressed alphabetically into ten cohorts, each of which contained seven cancer drugs present in three out of the seven pools, as shown in Table VII. Said another way, the screening platform 210 generated a “7 pick 3” compressed library by assigning the cancer drugs among different pools. […] The library was also compressed into ten cohorts with pools designed based on information known about each cancer drug, as shown in Table VIII. After cell viability measurement and DRS calculation, the DRS of each cancer drug in the samples generated based on the pools were deconvoluted and compared to the DRS for each cancer drug measured individually.
In parallel to the exemplary sample compression screen covered in Table VII, perturbations were compressed into pools and then screened. The pools were designed using drug class as a feature with two compression rules (or simply “rules”). The first rule required that drugs from the same class be separated into different cohorts (i.e., mutually exclusive groups of pools). The second rule separated PI3K pathway inhibitors from MAPK pathway inhibitors, as inhibiting these pathways in parallel is known to be synergistic but has not been clinically effective due to dose-limiting toxicities. A benefit of compressing perturbations is the ability to measure additive, antagonistic, and synergistic effects between drugs in the same pool. However, these effects can negatively impact deconvolution of individual drug effects. Therefore, combinations of drugs for which evidence of clinical toxicity exists can be assigned to different pools in accordance with an informed pooling operation. As new preclinical or clinical evidence of toxic combinations becomes available, the rules implemented by the screening platform 210—and more specifically, its algorithm for compressing members of a library—can be updated accordingly.
In SUM-based deconvolution, an assumption of additivity is used to quantify the individual effects of each perturbation on each target. Additivity implies that each perturbation effect on each target is positively contributing to the overall effect measured for that pool. This is an accurate assumption for certain experiments, such as when targets or samples are compressed. When targets are pooled—or when samples containing different targets are pooled—the effect of each perturbation on each individual target is diluted. In other words, each perturbation has an isolated effect on a target in culture, and the sum total of the isolated effects are measured when pooled. Therefore, SUM-based deconvolution breaks down the sum total measured for a pool and assigns estimated fractional effects to each compressed perturbation or target in the pool. The screening platform 210 used SUM-based deconvolution for all target and sample compression experiments described above.
As mentioned above, SUM-based deconvolution uses the overlapping pool design to identify relative relationships and ranges for the individual effects of each perturbation. When the overlapping pool design is not sufficient to solve for the polynomials representing perturbation effects, an anchor perturbation can be identified by the screening platform 210 based on rank order and assigned an effect size of zero. The anchor perturbation may be the lowest ranked perturbation in the rank order. This then enables the screening platform 210 to solve for the polynomials for the remaining perturbations.

[2] = system: MOLT-4; assay: Cell viability (CellTiter Glo), compressed perturbation pools with informed pool design, MAX-based deconvolution, MOLT-4; conditions: for DRS: MOLT-4, None (measured individually), informed pool design table; for DRS from MAX-based deconvolution: MOLT-4, Samples, 7 Pick 3 informed perturbation pools; for DRS, MOLT-4, MAX: compressed perturbation pools, informed pool design, MAX-based deconvolution;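 for DRS from MAX-based deconvolution: higher DRS means a larger drug effect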
Method in brief: (§1)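 Drugs dosed from 1 nM to 10 μM with ATP-luminescence viability, giving a DRS per drug. Pools designed by drug class, with same-class drugs in separate cohorts and clinically toxic pairs kept apart.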

[3] = system: REH; assay: Cell viability (CellTiter Glo), compressed perturbation pools with informed pool design, MAX-based deconvolution, REH; conditions: REH; for DRS: None (measured individually), informed pool design table; for DRS from MAX-based deconvolution: Samples, 7 Pick 3 informed perturbation pools; for DRS, REH, MAX: compressed perturbation pools, informed pool design, MAX-based deconvolution;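 for DRS from MAX-based deconvolution: higher DRS means a larger drug effect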
Method in brief: as §1

[4] = system: CCRF-CFM; assay: ATP-based luminescence cell viability (CellTiter Glo), drug response score, CCRF-CFM; set-up: scale not given here; conditions: for DRS from deconvolution: Sample compression, 5 Pick 3 pools; for drug response score (DRS): screened individually (Compress: None)

Row | SMILES | DRS, REH, SUM [1] | DRS [2] | DRS from MAX-based deconvolution [2] | DRS, MOLT-4, MAX [2] | DRS [3] | DRS from MAX-based deconvolution [3] | DRS, REH, MAX [3] | DRS from deconvolution [4] | drug response score (DRS) [4]
1 | C=CC(=O)Nc1cc(Nc2nccc(-c3cn(C)c4ccccc34)n2)c(OC)cc1N(C)CCN(C)C [Osimertinib] | 0.00 | 0.10 | 0.00 | 0.00 | 0.10 | 0.00 | 0.00 | – | –
2 | COc1cc2ncnc(Nc3ccc(F)c(Cl)c3)c2cc1OCCCN1CCOCC1 [Gefitinib] | 1.12 | 0.00 | 0.00 | 0.00 | 0.00 | 0.00 | 4.06 | – | –
3 | COc1c(OCCCN2CCOCC2)ccc2c1N=C(NC(=O)c1cnc(N)nc1)N1CCN=C21 [Copanlisib] | – | 0.03 | 0.03 | – | 1.63 | 2.12 | – | 15.72 | 15.14
4 | N#Cc1ccnc(N2C(=O)CC[C@H]2C(=O)N(c2cncc(F)c2)[C@H](C(=O)NC2CC(F)(F)C2)c2ccccc2Cl)c1 [Ivosidenib] | – | 1.12 | 1.96 | – | 3.12 | 3.55 | – | 0.99 | 1.00
5 | Cc1[nH]c2ccccc2c1CCNCc1ccc(/C=C/C(=O)NO)cc1 [Panobinostat] | – | 3.01 | 3.24 | – | 3.01 | 3.96 | – | 18.07 | 17.50
6 | CC1(C)CCC(CN2CCN(c3ccc(C(=O)NS(=O)(=O)c4ccc(NCC5CCOCC5)c([N+](=O)[O-])c4)c(Oc4cnc5[nH]ccc5c4)c3)CC2)=C(c2ccc(Cl)cc2)C1 [Venetoclax] | 5.50 | 3.37 | 3.88 | 3.41 | 4.37 | 0.00 | 4.43 | 0.50 | 1.10
